The compounds below were run against T1, Human VPS34 (Homo sapiens, UniProt Q8NEB9) (assay: Human VPS34 Enzyme Assay (Adapta TR-FRET)). Conditions: compound at 1.111 μM; read-out: Average VPS34 % INH @ 1.111 μM.
T1 construct: GST (N); host or cells: SF9 insect cells (baculovirus)
Assay type: biochemical
Experimental: VPS34 (accession number GB:BC033004) was cloned into pDEST20-Thombin as N-terminal GST tagged fusion proteins using the Gateway system (Invitrogen, catalog#11804-013). The sequences were verified before recombinant protein expression using the Baculovirus Expression System with Gateway® Technology.
For expression VPS34 was infected at 1MOI in SF9 cells and harvested 72 hours post infection.
For purification, VPS34 is purified by Glutathione Sepharose 4 Fast Flow (GE Healthcare #17-5132-03) followed by HiTrap Q (GE Healthcare #17-1153-01).
Human VPS34 Enzyme Assay Method
100 nL compounds in DMSO are added to wells of a 384 well microtitre plate (Greiner 780076). At room temperature: 5 ul VPS34 reaction buffer (Invitrogen Assay Buffer Q (diluted 1 in 5 with nanopure water) plus 2 mM DTT and 2 mM MnCl2) containing ATP (20 uM, Promega) and 200 uM PI-PS substrate (Invitrogen PV5122) is added followed immediately by 5 ul VPS34 reaction buffer (as above) containing VPS34 (5 nM, Millennium Protein Sciences Group) and the mixture is incubated with shaking at room temperature for 1 hour. Then 5 ul VPS34 stop-detect mix (as per Invitrogen Adapta Assay kit (PV5009) instructions (contains kinase quench buffer, TR-FRET buffer, Adapta Eu anti-ADP antibody and Alexa Fluor 647 ADP tracer)) is added to quench the reaction. The plates are then incubated for 30 minutes at room temperature with shaking and then read on a BMG PheraStar Plus reader.
3) VPS34 is assayed using Adapta™ Universal Kinase Assay Kit (Invitrogen).

T1 sequence (Q8NEB9 whole entry): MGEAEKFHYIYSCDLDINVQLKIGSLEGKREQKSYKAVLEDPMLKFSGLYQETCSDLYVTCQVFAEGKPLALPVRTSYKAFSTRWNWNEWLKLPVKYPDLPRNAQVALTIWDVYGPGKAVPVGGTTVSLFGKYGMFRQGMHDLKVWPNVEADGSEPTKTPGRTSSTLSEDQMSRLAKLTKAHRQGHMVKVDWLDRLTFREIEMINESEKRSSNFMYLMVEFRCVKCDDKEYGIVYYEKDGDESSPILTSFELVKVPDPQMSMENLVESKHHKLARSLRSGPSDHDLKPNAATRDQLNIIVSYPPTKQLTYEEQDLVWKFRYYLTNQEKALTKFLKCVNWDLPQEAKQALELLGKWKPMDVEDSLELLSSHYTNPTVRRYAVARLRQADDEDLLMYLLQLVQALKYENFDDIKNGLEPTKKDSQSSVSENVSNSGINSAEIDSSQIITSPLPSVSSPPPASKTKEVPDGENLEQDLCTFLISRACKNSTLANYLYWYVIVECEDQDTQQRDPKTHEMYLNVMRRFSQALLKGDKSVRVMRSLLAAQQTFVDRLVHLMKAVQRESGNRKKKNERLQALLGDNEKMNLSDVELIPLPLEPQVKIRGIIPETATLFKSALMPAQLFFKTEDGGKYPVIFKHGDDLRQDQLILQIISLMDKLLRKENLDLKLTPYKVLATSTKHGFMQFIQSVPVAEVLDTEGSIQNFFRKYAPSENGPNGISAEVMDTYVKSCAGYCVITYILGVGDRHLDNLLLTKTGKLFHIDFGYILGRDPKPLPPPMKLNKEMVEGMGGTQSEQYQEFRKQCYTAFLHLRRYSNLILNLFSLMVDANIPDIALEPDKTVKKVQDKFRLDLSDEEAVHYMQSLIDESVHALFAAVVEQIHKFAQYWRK

| SMILES | inhibition at 1.111 µM [%] |
| --- | --- |
| Nc1cc(-c2nc(-c3nnc[nH]3)c(-c3ccccc3Cl)o2)ccn1 [Compound I-32, 4-[5-(2-chlorophenyl)-4-(4H-1,2,4-triazol-3-yl)-1,3-oxazol-2-yl]pyridin-2-amine] | 26 |
| COC(=O)Nc1cc(-c2nc(-c3nnc[nH]3)c(-c3ccccc3Cl)o2)c(C)cn1 [Compound I-35, methyl {4-[5-(2-chlorophenyl)-4-(4H-1,2,4-triazol-3-yl)-1,3-oxazol-2-yl]-5-methylpyridin-2-yl}carbamate] | 117 |
| CC(=O)Nc1cc(-c2cc(-c3nnc[nH]3)c(-c3cc(CN4CCCC4)ccc3Cl)o2)c(C)cn1 [Compound I-36, N-(4-{5-[2-chloro-5-(pyrrolidin-1-ylmethyl)phenyl]-4-(4H-1,2,4-triazol-3-yl)-2-furyl}-5-methylpyridin-2-yl)acetamide] | 129 |
| O=C(Cn1cccn1)Nc1cc(-c2nc(-c3nnc[nH]3)c(-c3ccccc3Cl)o2)ccn1 [Compound I-37, N-{4-[5-(2-chlorophenyl)-4-(4H-1,2,4-triazol-3-yl)-1,3-oxazol-2-yl]pyridin-2-yl}-2-(1H-pyrazol-1-yl)acetamide] | 117 |
| CC(=O)Nc1cc(-c2nc(-c3cc(CN(C)C)ccc3Cl)c(-c3nnc[nH]3)o2)c(C)cn1 [Compound I-40, N-{4-[4-{2-chloro-5-[(dimethylamino)methyl]phenyl}-5-(4H-1,2,4-triazol-3-yl)-1,3-oxazol-2-yl]-5-methylpyridin-2-yl}acetamide] | 115 |
| C=CCCC(=O)Nc1cc(-c2nc(-c3nnc[nH]3)c(-c3ccccc3Cl)o2)ccn1 [Compound I-43, N-{4-[5-(2-chlorophenyl)-4-(4H-1,2,4-triazol-3-yl)-1,3-oxazol-2-yl]pyridin-2-yl}pent-4-enamide] | 98 |
| COCCC(=O)Nc1cc(-c2nc(-c3nnc[nH]3)c(-c3ccccc3Cl)o2)ccn1 [Compound I-45, N-{4-[5-(2-chlorophenyl)-4-(4H-1,2,4-triazol-3-yl)-1,3-oxazol-2-yl]pyridin-2-yl}-3-methoxypropanamide] | 104 |
| CC(=O)Nc1cc(-c2nc(C(=O)NCc3cccnc3)c(-c3ccccc3Cl)o2)c(C)cn1 [Compound I-47, 2-(2-acetamido-5-methylpyridin-4-yl)-5-(2-chlorophenyl)-N-(pyridin-3-ylmethyl)-1,3-oxazole-4-carboxamide] | 31 |
| Clc1ccccc1-c1oc(-c2ccncc2)nc1-c1nnc[nH]1 [Compound I-49, 4-[5-(2-chlorophenyl)-4-(4H-1,2,4-triazol-3-yl)-1,3-oxazol-2-yl]pyridine] | 19 |
| CC(=O)Nc1cc(-c2nc(N3CCCS3(=O)=O)c(-c3nnc[nH]3)o2)c(C)cn1 [Compound I-50, N-{4-[4-(1,1-dioxidoisothiazolidin-2-yl)-5-(4H-1,2,4-triazol-3-yl)-1,3-oxazol-2-yl]-5-methylpyridin-2-yl}acetamide] | 115 |
| CC(=O)Nc1cc(-c2nc(-c3cc(CN4CCCC4)ccc3Cl)c(C(=O)O)o2)c(C)cn1 [Compound I-51, 2-(2-acetamido-5-methylpyridin-4-yl)-4-[2-chloro-5-(pyrrolidin-1-ylmethyl)phenyl]-1,3-oxazole-5-carboxylic acid] | 131 |
| O=C(Cc1ccc(O)cc1)Nc1cc(-c2nc(-c3nnc[nH]3)c(-c3ccccc3Cl)o2)ccn1 [Compound I-58, N-{4-[5-(2-chlorophenyl)-4-(4H-1,2,4-triazol-3-yl)-1,3-oxazol-2-yl]pyridin-2-yl}-2-(4-hydroxyphenyl)acetamide] | 94 |
| CC(=O)Nc1cc(-c2nc(C(=O)NCCCn3ccnc3)c(-c3ccccc3Cl)o2)c(C)cn1 [Compound I-63, 2-(2-acetamido-5-methylpyridin-4-yl)-5-(2-chlorophenyl)-N-[3-(1H-imidazol-1-yl)propyl]-1,3-oxazole-4-carboxamide] | 14 |

Other lines, results leading:

| inhibition at 1.111 µM [%] | SMILES |
| --- | --- |
| 56 | CC(=O)Nc1cc(-c2nc(C(=O)Nc3cnccn3)c(-c3ccccc3Cl)o2)c(C)cn1 [Compound I-31, 2-(2-acetamido-5-methylpyridin-4-yl)-5-(2-chlorophenyl)-N-(pyrazin-2-yl)-1,3-oxazole-4-carboxamide] |
| 102 | CC(=O)Nc1cc(-c2nc(-c3ccccc3Cl)c(-c3ncco3)o2)c(C)cn1 [Compound I-33, N-{4-[4′-(2-chlorophenyl)-2,5′-bi-1,3-oxazol-2′-yl]-5-methylpyridin-2-yl}acetamide] |
| 128 | CC(=O)Nc1cc(-c2cc(C(=O)NCCOCCO)c(-c3ccccc3Cl)o2)c(C)cn1 [Compound I-34, 5-(2-acetamido-5-methylpyridin-4-yl)-2-(2-chlorophenyl)-N-[2-(2-hydroxyethoxy)ethyl]-3-furamide] |
| 43 | CC(=O)Nc1cc(-c2nc(C(=O)NCc3cccs3)c(-c3ccccc3Cl)o2)c(C)cn1 [Compound I-38, 2-(2-acetamido-5-methylpyridin-4-yl)-5-(2-chlorophenyl)-N-(2-thienylmethyl)-1,3-oxazole-4-carboxamide] |
| 125 | CC(=O)Nc1cc(-c2nc(-c3ccccc3Cl)c(-c3nnc[nH]3)o2)c(C)cn1 [Compound I-39, N-{4-[4-(2-chlorophenyl)-5-(4H-1,2,4-triazol-3-yl)-1,3-oxazol-2-yl]-5-methylpyridin-2-yl}acetamide] |
| 90 | CC(=O)Nc1cc(-c2cc(C(=O)NCCc3cn4ccccc4n3)c(-c3ccccc3Cl)o2)c(C)cn1 [Compound I-41, 5-(2-acetamido-5-methylpyridin-4-yl)-2-(2-chlorophenyl)-N-[2-(imidazo[1,2-a]pyridin-2-yl)ethyl]-3-furamide] |
| 117 | CC(=O)Nc1cc(-c2cc(C(=O)NCc3cccs3)c(-c3ccccc3Cl)o2)c(C)cn1 [Compound I-42, 5-(2-acetamido-5-methylpyridin-4-yl)-2-(2-chlorophenyl)-N-(2-thienylmethyl)-3-furamide] |
| 150 | CC(=O)Nc1cc(-c2cc(C(=O)NCc3ccccn3)c(-c3ccccc3Cl)o2)c(C)cn1 [Compound I-44, 5-(2-acetamido-5-methylpyridin-4-yl)-2-(2-chlorophenyl)-N-(pyridin-2-ylmethyl)-3-furamide] |
| 89 | CON(C)C(=O)c1cc(-c2cc(NC(C)=O)ncc2C)oc1-c1ccccc1Cl [Compound I-46, 5-(2-acetamido-5-methylpyridin-4-yl)-2-(2-chlorophenyl)-N-methoxy-N-methyl-3-furamide] |
| 130 | CC(=O)Nc1cc(-c2cc(-c3cc[nH]n3)c(-c3ccccc3Cl)o2)c(C)cn1 [Compound I-48, N-{4-[5-(2-chlorophenyl)-4-(1H-pyrazol-3-yl)-2-furyl]-5-methylpyridin-2-yl}acetamide] |
| 117 | CNC(=O)c1nc(-c2cc(NC(C)=O)ncc2C)oc1-c1ccccc1Cl [Compound I-52, 2-(2-acetamido-5-methylpyridin-4-yl)-5-(2-chlorophenyl)-N-methyl-1,3-oxazole-4-carboxamide] |
| 104 | CC(=O)Nc1cc(-c2cc(C(=O)NCc3ccccc3)c(-c3ccccc3Cl)o2)c(C)cn1 [Compound I-53, 5-(2-acetamido-5-methylpyridin-4-yl)-N-benzyl-2-(2-chlorophenyl)-3-furamide] |
| 152 | CNC(=O)c1cc(-c2cc(NC(C)=O)ncc2C)oc1-c1ccccc1Cl [Compound I-54, 5-(2-acetamido-5-methylpyridin-4-yl)-2-(2-chlorophenyl)-N-methyl-3-furamide] |
| 20 | CC(=O)Nc1cc(-c2nc(C(=O)NCc3ccccc3)c(-c3ccccc3Cl)o2)c(C)cn1 [Compound I-55, 2-(2-acetamido-5-methylpyridin-4-yl)-N-benzyl-5-(2-chlorophenyl)-1,3-oxazole-4-carboxamide] |
| 139 | CC(=O)Nc1cc(-c2cc(C(=O)O)c(-c3ccccc3Cl)o2)c(C)cn1 [Compound I-56, 5-(2-acetamido-5-methylpyridin-4-yl)-2-(2-chlorophenyl)-3-furoic acid] |
| 135 | CC(=O)Nc1cc(-c2nc(-c3ccccc3Cl)c(-c3cc[nH]n3)o2)c(C)cn1 [Compound I-57, N-{4-[4-(2-chlorophenyl)-5-(1H-pyrazol-3-yl)-1,3-oxazol-2-yl]-5-methylpyridin-2-yl}acetamide] |
| 101 | CCNC(=O)c1nc(-c2cc(NC(C)=O)ncc2C)oc1-c1ccccc1Cl [Compound I-59, 2-(2-acetamido-5-methylpyridin-4-yl)-5-(2-chlorophenyl)-N-ethyl-1,3-oxazole-4-carboxamide] |
| 122 | CC(=O)Nc1cc(-c2nc(-c3nccs3)c(-c3ccccc3Cl)o2)c(C)cn1 [Compound I-60, N-{4-[5-(2-chlorophenyl)-4-(1,3-thiazol-2-yl)-1,3-oxazol-2-yl]-5-methylpyridin-2-yl}acetamide] |
| 96 | CC(=O)Nc1cc(-c2cc(C(=O)N(C)C)c(-c3ccccc3Cl)o2)c(C)cn1 [Compound I-61, 5-(2-acetamido-5-methylpyridin-4-yl)-2-(2-chlorophenyl)-N,N-dimethyl-3-furamide] |

Source: US8859768B2, “Heteroaryls and uses thereof” (Millennium Pharmaceuticals, Inc., priority 2010, dated 2014)
